Laboratory results as given in the supplement of paper PMC11061612.

What was measured:
Assay in all cases: Bliss excess, mean over the matrix (fraction); higher = more synergy
[1] = test system: HCC-15 (Squamous Cell Lung Carcinoma)
In short: (§1)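 Bliss excess equals the observed combination effect minus the expected value EA + EB − EA·EB, where EA and EB are the effects of each agent alone. Combination Emax is the second-highest inhibition within the matrix. Inhibition was scaled from CellTiter-Glo 2.0 luminescence, with 0 set by vehicle wells and 1 by blank wells, after 72 hours of two-drug dosing of cells plated in 1536-well plates.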

[2] = test system: RT-112 (Bladder Carcinoma)
In short: as §1

[3] = test system: OC-314 (Ovarian Carcinoma)
In short: as §1

[4] = test system: SW1116 (Colorectal Carcinoma)
In short: as §1

HMV-II (Melanoma) = test system: HMV-II (Melanoma)
In short: as §1

[5] = test system: KARPAS-231 (B-Cell Non-Hodgkin's Lymphoma)
In short: as §1

[6] = test system: RKO (Colorectal Carcinoma)
In short: as §1

[7] = test system: HO-1-u-1 (Oral Cavity Carcinoma)
In short: as §1

NCI-H2795 (Mesothelioma) = test system: NCI-H2795 (Mesothelioma)
In short: as §1

[8] = test system: TE-4 (Esophageal Squamous Cell Carcinoma)
In short: as §1

[9] = test system: K5 (Thyroid Gland Carcinoma)
In short: as §1

[10] = test system: SW1271 (Small Cell Lung Carcinoma)
In short: as §1

NB14 (Neuroblastoma) = test system: NB14 (Neuroblastoma)
In short: as §1

[11] = test system: Hs-633T (Other Solid Carcinomas)
In short: as §1

[12] = test system: SK-OV-3 (Ovarian Carcinoma)
In short: as §1

[13] = test system: NCI-H69 (Small Cell Lung Carcinoma)
In short: as §1

COLO-829 (Melanoma) = test system: COLO-829 (Melanoma)
In short: as §1

SH-4 (Melanoma) = test system: SH-4 (Melanoma)
In short: as §1

[14] = test system: SW626 (Colorectal Carcinoma)
In short: as §1

[15] = test system: KYSE-410 (Esophageal Squamous Cell Carcinoma)
In short: as §1

| Compound | Bliss excess [1] | Bliss excess [2] | Bliss excess [3] | Bliss excess [4] | Bliss excess (HMV-II (Melanoma)) | Bliss excess [5] | Bliss excess [6] | Bliss excess [7] | Bliss excess (NCI-H2795 (Mesothelioma)) | Bliss excess [8] | Bliss excess [9] | Bliss excess [10] | Bliss excess (NB14 (Neuroblastoma)) | Bliss excess [11] | Bliss excess [12] | Bliss excess [13] | Bliss excess (COLO-829 (Melanoma)) | Bliss excess (SH-4 (Melanoma)) | Bliss excess [14] | Bliss excess [15] |
| --- | --- | --- | --- | --- | --- | --- | --- | --- | --- | --- | --- | --- | --- | --- | --- | --- | --- | --- | --- | --- |
| COc1nnc2ccc(N3CCC(c4ccc(OCCN5CCN(C)C(=O)[C@H]5C)cc4)CC3)nn12 [AZD5153] + Cn1cnc2c(F)c(Nc3ccc(Br)cc3Cl)c(C(=O)NOCCO)cc21 [Selumetinib] (first compound max 1 µM, 7x7, partner max 10 µM) | 0.0567 | 0.0423 | -0.064 | 0.0036 | 0.0275 | -0.0464 | 0.0263 | 0.0747 | -0.03 | 0.0311 | -0.0937 | -0.0034 | -0.0325 | 0.0302 | -0.0545 | -0.0503 | -0.0086 | 0.0222 | -0.005 | -0.0784 |
| Cc1c2c(nn1C)CSCc1cc(n(C)n1)CSc1cc(c3ccccc3c1)OCCCc1c(C(=O)O)n(C)c3c-2c(Cl)ccc13 [AZD5991] + C1CN(CCC1(C(=O)N[C@@H](CCO)C2=CC=C(C=C2)Cl)N)C3=NC=NC4=C3C=CN4 [Capivasertib] (first compound max 1 µM, 7x7, partner max 3 µM) | 0.0441 | 0.0563 | 0.0362 | -0.0238 | -0.0307 | -0.0402 | 0.0296 | 0.0242 | 0.119 | 0.0626 | -0.021 | -0.0664 | 0.0283 | 0.0123 | -0.0065 | -0.026 | -0.0212 | -0.0029 | -0.018 | -0.0218 |
| Cc1c2c(nn1C)CSCc1cc(n(C)n1)CSc1cc(c3ccccc3c1)OCCCc1c(C(=O)O)n(C)c3c-2c(Cl)ccc13 [AZD5991] + C=CCn1c(=O)c2cnc(Nc3ccc(N4CCN(C)CC4)cc3)nc2n1-c1cccc(C(C)(C)O)n1 [AZD1775] (first compound max 1 µM, partner max 1 µM) | 0.001 | 0.0566 | 0.0319 | 0.005 | 0.0001 | 0.0195 | -0.0002 | 0.0396 | 0.0734 | 0.0115 | -0.0391 | -0.0385 | -0.0137 | -0.0399 | 0.0698 | -0.116 | -0.0169 | 0.101 | 0.0446 | 0.0218 |
| Cc1c2c(nn1C)CSCc1cc(n(C)n1)CSc1cc(c3ccccc3c1)OCCCc1c(C(=O)O)n(C)c3c-2c(Cl)ccc13 [AZD5991] + CC1(C)CCC(CN2CCN(c3ccc(C(=O)NS(=O)(=O)c4ccc(NCC5CCOCC5)c([N+](=O)[O-])c4)c(Oc4cnc5[nH]ccc5c4)c3)CC2)=C(c2ccc(Cl)cc2)C1 [Venetoclax] (first compound max 1 µM, 7x7, partner max 1 µM) | -0.0271 | 0.057 | -0.0045 | -0.0215 | -0.0257 | -0.0232 | 0.0107 | -0.0046 | -0.0423 | 0.0017 | -0.0325 | -0.0504 | 0.255 | -0.016 | -0.0153 | -0.0383 | -0.0122 | 0.0457 | -0.0064 | -0.0393 |
| Cc1c2c(nn1C)CSCc1cc(n(C)n1)CSc1cc(c3ccccc3c1)OCCCc1c(C(=O)O)n(C)c3c-2c(Cl)ccc13 [AZD5991] + CN(C)CCCOc1ccc(-c2ccc3ncc4c(c3c2)n(C2CCOCC2)c(=O)n4C)cn1 [AZD0156] (first compound max 1 µM, 7x7, partner max 1 µM) | 0.0213 | -0.0217 | 0.0093 | -0.0032 | -0.033 | 0.041 | 0.0041 | 0.04 | 0.0192 | 0.0186 | -0.0277 | 0.0034 | 0.0091 | 0.0239 | 0.0106 | -0.0614 | -0.0492 | 0.0088 | 0.0094 | -0.028 |
| Cc1c2c(nn1C)CSCc1cc(n(C)n1)CSc1cc(c3ccccc3c1)OCCCc1c(C(=O)O)n(C)c3c-2c(Cl)ccc13 [AZD5991] + C[C@@H]1COCCN1C2=NC(=NC(=C2)C3(CC3)[S@](=N)(=O)C)C4=C5C=CNC5=NC=C4 [AZD6738] (first compound max 1 µM, 7x7, partner max 10 µM) | 0.0549 | 0.0348 | 0.0197 | 0.0515 | -0.0496 | 0.0252 | 0.0082 | -0.0074 | 0.0835 | 0.0683 | 0.0076 | 0.0121 | -0.0038 | 0.0184 | 0.0538 | -0.0477 | 0.0471 | 0.0323 | 0.0268 | 0.0281 |
| Cc1c2c(nn1C)CSCc1cc(n(C)n1)CSc1cc(c3ccccc3c1)OCCCc1c(C(=O)O)n(C)c3c-2c(Cl)ccc13 [AZD5991] + C[C@@H](Nc1cc(F)cc(F)c1)c1cc(C(=O)N(C)C)cc2c(=O)cc(N3CCOCC3)oc12 [AZD8186] (first compound max 1 µM, 7x7, partner max 3 µM) | -0.0047 | 0.0316 | -0.0029 | 0.0046 | -0.0401 | -0.0107 | -0.0116 | -0.014 | 0.0848 | 0.0492 | -0.0231 | -0.0576 | 0.0059 | 0.0127 | -0.0501 | -0.0601 | -0.0758 | 0.0203 | -0.0268 | -0.0639 |
| Cc1c2c(nn1C)CSCc1cc(n(C)n1)CSc1cc(c3ccccc3c1)OCCCc1c(C(=O)O)n(C)c3c-2c(Cl)ccc13 [AZD5991] + Cc1cc2ncnn2cc1Nc1ncc2c(n1)n(C1CCOCC1)c(=O)n2C [AZD7648] (first compound max 1 µM, 7x7, partner max 10 µM) | -0.0436 | -0.0298 | 0.0063 | -0.0466 | -0.067 | -0.0639 | -0.0301 | -0.019 | -0.0168 | -0.025 | -0.0537 | -0.0308 | -0.0505 | -0.0097 | -0.032 | -0.0501 | -0.0341 | -0.0079 | -0.0069 | -0.0184 |
| Cc1c2c(nn1C)CSCc1cc(n(C)n1)CSc1cc(c3ccccc3c1)OCCCc1c(C(=O)O)n(C)c3c-2c(Cl)ccc13 [AZD5991] + Cn1cnc2c(F)c(Nc3ccc(Br)cc3Cl)c(C(=O)NOCCO)cc21 [Selumetinib] (first compound max 1 µM, 7x7, partner max 3 µM) | 0.0217 | 0.102 | -0.0313 | -0.032 | 0.0066 | -0.0645 | 0.0143 | 0.0168 | 0.0278 | 0.0329 | -0.0216 | -0.0287 | 0.0392 | 0.0542 | -0.0597 | -0.065 | 0.0295 | 0.0465 | 0.0233 | -0.0058 |
| C[C@@H]1COCCN1c1cc(C2([S@](C)(=N)=O)CC2)nc(-c2ccnc3[nH]ccc23)n1 [AZD6738] + O=C(c1cc(Cc2n[nH]c(=O)c3ccccc23)ccc1F)N1CCN(C(=O)C2CC2)CC1 [Olaparib] (first compound max 10 µM, 7x7, partner max 10 µM) | 0.0025 | -0.0643 | 0.0247 | -0.0228 | -0.0296 | -0.0708 | 0.0101 | 0.0528 | 0.053 | 0.0082 | -0.0175 | -0.016 | -0.0072 | 0.0221 | -0.0222 | -0.0283 | -0.0067 | 0.0189 | -0.0022 | -0.0219 |
| Cc1cc2ncnn2cc1Nc1ncc2c(n1)n(C1CCOCC1)c(=O)n2C [AZD7648] + C=CCn1c(=O)c2cnc(Nc3ccc(N4CCN(C)CC4)cc3)nc2n1-c1cccc(C(C)(C)O)n1 [AZD1775] (first compound max 10 µM, partner max 1 µM) | 0.0339 | 0.0239 | 0.0579 | -0.0172 | -0.0714 | -0.0309 | -0.032 | 0.0946 | 0.056 | -0.079 | 0.0433 | -0.0199 | 0.0014 | -0.0333 | -0.0663 | -0.118 | -0.0047 | 0.0332 | 0.0341 | -0.0094 |
| Cc1cc2ncnn2cc1Nc1ncc2c(n1)n(C1CCOCC1)c(=O)n2C [AZD7648] + CCN(CCO)CCCOc1ccc2c(Nc3cc(CC(=O)Nc4cccc(F)c4)[nH]n3)ncnc2c1 [AZD2811] (first compound max 10 µM, 7x7, partner max 1 µM) | 0.0043 | 0.0796 | 0.0565 | 0.012 | -0.0368 | -0.0041 | 0.0369 | 0.0258 | 0.009 | 0.0096 | 0.0013 | -0.0081 | -0.0603 | 0.0211 | -0.0193 | 0.0296 | -0.0034 | -0.0059 | -0.0688 | -0.0046 |
| Cc1cc2ncnn2cc1Nc1ncc2c(n1)n(C1CCOCC1)c(=O)n2C [AZD7648] + CN(C)CCCOc1ccc(-c2ccc3ncc4c(c3c2)n(C2CCOCC2)c(=O)n4C)cn1 [AZD0156] (first compound max 10 µM, 7x7, partner max 1 µM) | 0.0013 | 0.0229 | 0.0334 | -0.0064 | -0.0169 | 0.0157 | 0.0317 | -0.0542 | -0.025 | 0.0139 | -0.0226 | 0.0567 | 0.0053 | 0.0271 | -0.0289 | -0.044 | -0.0203 | 0.0077 | 0.0225 | -0.0059 |
| Cc1cc2ncnn2cc1Nc1ncc2c(n1)n(C1CCOCC1)c(=O)n2C [AZD7648] + C[C@@H]1COCCN1C2=NC(=NC(=C2)C3(CC3)[S@](=N)(=O)C)C4=C5C=CNC5=NC=C4 [AZD6738] (first compound max 10 µM, 7x7, partner max 10 µM) | 0.0093 | 0.0746 | 0.0565 | 0.0285 | 0.0134 | 0.0018 | 0.0059 | -0.0014 | 0.0603 | 0.054 | 0.0129 | 0.0274 | -0.0026 | -0.0138 | 0.0411 | -0.0348 | -0.0088 | -0.0043 | 0.0302 | 0.0285 |
| Cc1cc2ncnn2cc1Nc1ncc2c(n1)n(C1CCOCC1)c(=O)n2C [AZD7648] + O=C(c1cc(Cc2n[nH]c(=O)c3ccccc23)ccc1F)N1CCN(C(=O)C2CC2)CC1 [Olaparib] (first compound max 10 µM, 7x7, partner max 10 µM) | -0.0059 | -0.0152 | -0.0164 | -0.0421 | -0.0181 | 0.0132 | -0.0152 | -0.0481 | -0.0183 | 0.0061 | -0.0159 | -0.0461 | -0.0534 | -0.0191 | -0.0478 | -0.0151 | -0.0378 | -0.0401 | -0.0584 | -0.0466 |
